These results are taken from US8026342B2, “Compositions and methods for binding sphingosine-1-phosphate” (Lpath, Inc., priority 2006, dated 2011).

The test system of one experiment is CNV lesions. Put plainly: CNV animal model of AMD, murine vs humanized mAbs (Example 17). The experiment is classed as in vivo, mice. The note with it: for Percent inhibition of lesion size: 14 days post laser. As for the experimental part:
The humanized antibody variants and the murine antibody were compared for their ability to inhibit neo-vascularization in the CNV animal model of AMD as shown in FIG. 13. […] Mice were sacrificed 14 days post laser surgery. Control mice were treated with aqueous buffer (PBS) or an isotype-matched non-specific antibody. Three of the humanized variants inhibited angiogenesis essentially equivalently to the murine antibody as assessed by measurement of CNV area. CNV lesion volumes are represented as means±SEM.
For the induction of CNV, mice were anesthetized with a mixture of ketamine (14 mg/kg) and xylazine (30 mg/kg) in sterile saline administered intraperitoneally at a dose of 5 μL per 20 g of body weight. Their pupils were then dilated with one drop each of ophthalmic tropicamide (0.5%) and phenylephrine (2.5%). An argon green ophthalmic laser (Oculight GL 532 nm, Iridex Corporation, Mountain View, Calif.) coupled to a slit lamp set to deliver a 100 msec pulse at 150 mW with a 50 μm spot size will then be used to rupture Bruch's membrane in three quadrants of the right eye located approximately 50 μm from the optic disc at relative 9, 12 and 3 o'clock positions. The left eye served as uninjured control in all cases.
The morphometric and volumetric CNV lesions were measured as follows. Two weeks after laser induction of CNV, the animals were euthanized by overdose of ketamine-xylazine mixture, then undergo whole body perfusion via cardiac puncture with 6 ml 4% paraformaldehyde in PBS, pH 7.5, (fixative) as previously described (Sengupta et al., 2003). The eyes will then be enucleated, punctured with a 27 g needle 1 mm posterior to the limbus, and immersed in fixative for 1 hr at room temperature, then washed 2× by immersion in PBS for 30 min. The eyes will then be dissected to isolate the posterior segment consisting of the retinal pigment epithelium, the choriocapillaris and the sclera. This tissue was then permeabilized and reacted with rhodamine-conjugated R. communis agglutinin I (Vector Laboratories, Burlingame, Calif.) to detect the CNV lesion as previously described (Sengupta et al., 2003; Sengupta et al., 2005). […]
Captured digital images were evaluated morphometrically using ImageJ software (Research Services Branch, National Institutes of Health, Bethesda, Md.). Images were split into separate RGB channels for analysis of the red and green channels as follows: 1) a calibration for the specific objective and microscope was applied to set the pixel-to-length ratio; 2) a threshold was applied using the Otsu algorithm; 3) images will be made binary; 4) a region-of-interest (ROI) was outlined to include the entire lesion area; 5) a particle analysis was performed to quantify the pixel area above the threshold level within the ROI. […]

Experiment [1] deals with retinal neovascularization. Put plainly: Murine model of retinopathy of prematurity: retinal neovascularization. It counts as in vivo, C57BL/6 mice. To be noted: 5.0 μg/eye intravitreal. On the procedure:
C57BL/6 mice (n=7) were placed in 75% oxygen at day 7 of life and at day 12 of life were returned to room air and given an intraocular injection of 5 μg of sonepcizumab in one eye and vehicle in the contralateral eye. At day 17, the mice received an intraocular injection of anti-PECAM antibody labeled with FITC and after 8 hours, mice were euthanized and eyes were removed and fixed in PBS-buffered formalin at room temperature for 5 hours. Retinas were dissected and washed with phosphate-buffered saline containing 0.25% Triton X-100 and whole mounted. Slides were viewed with a Nikon Fluorescence Microscope and the area of retinal NV per retina was measured by image analysis.

The subject of experiment [2] is VEGF-induced angiogenesis. Put plainly: VEGF-induced angiogenesis in GFR Matrigel plug assay. The note with it: 10 mg/kg i.p. every 72 hrs, 12 days. It counts as in vivo, nu/nu mice. As for the experimental part:
Neovascularization in vivo was performed using the GFR Matrigel plug assay as described in Staton, et al., Int J Exp Pathol, 2004. 85(5): p. 233-48. 4-6 week old nu/nu mice were injected in the left flank with 500 uL of ice-cold GFR Matrigel. The GFR Matrigel was injected either alone (control) or after addition of 10 ug/mL VEGF supplemented with 100 ug/ml heparin. Groups consisted of 3 animals for control and sonepcizumab treatment. Animals were treated with the saline or sonepcizumab (10 mg/kg) 1 day prior to the implantation of GFR Matrigel and doses were administrated i.p. every 72 hrs for the duration of the experiment. After 12 days animals were sacrificed; the plugs were excised and immediately fixed in zinc and formalin-free fixative overnight, embedded in paraffin and sectioned (5 um). Paraffin-embedded sections were then stained for CD31 (Pharmingen). Images (9 images per section, 3 sections per plug) were taken by digital camera at 20× magnification and the CD31 positive staining was then quantified by PhotoShop 6.0 program and expressed as angiogenesis score (pixel^2) by ImageJ.

Experiment [3] relates to Matrigel plug neovascularization. Put plainly: In vivo Matrigel plug assay for neovascularization (S1P, VEGF, bFGF). More on the design: species or system mice. As for the experimental part: Based on in vivo studies showing that S1P increased endothelial capillary growth into subcutaneously implanted Matrigel plugs, we speculated that SPHINGOMAB could reduce de novo BV formation in vivo. To investigate this, we employed the in vivo Matrigel Plug assay for neovascularization. In one set of experiments, Matrigel was supplemented with either 1 μM S1P, 0.5 μg/mL bFGF or 1 μg/mL VEGF and then […]. into mice (n=4). After 10 days, the mice were heparinized and injected with the fluorescent lectin, Isolectin B4-FITC, which binds to adhesion molecules expressed by vascular EC that form the growing BVs. The plugs were then excised, frozen in OCT, sectioned and viewed for FITC-stained BVs.
Sections of the plugs were then stained with hemotoxyln & eosin for evaluation of EC infiltration (FIG. 6B). The infiltration of ECs is a critical step in neo-vascularization. […] Cell infiltration is presumed to be ECs although we recognize that other cell types such as immune cells may also be stained.
Endogenous S1P from the blood and surrounding tissue could supply a wound with pro-angiogenic stimuli. The ability of SPHINGOMAB to reduce endogenous S1P in a wound was investigated. Optimally stimulated plugs (Matrigel supplemented with 0.5 μg/mL bFGF or […] VEGF) were implanted into mice. Mice received i.p. injections of 25 mg/kg SPHINGOMAB or saline every 48 hrs starting 1 day prior to Matrigel implantation. Each treatment group (Matrigel, Matrigel plus GF or Matrigel plus GF and administered SPHINGOMAB) consisted of a minimum of 6 mice. After 10 days, the mice were treated with heparin, injected with Isolectin B4-FITC, the plugs excised, embedded in OCT freezing medium and sectioned.

The mark [4] stands for this setting: 0.5 ug intravitreal, Day 0 and Day 6.
Where [5] appears, read: 25 mg/kg i.p. every 48 hrs, 10 days.

In the case of “LT1009: humanized anti-S1P IgG1/kappa mAb with Cys to Ala in HCDR2, light chain with 5 backmutations; SEQ ID NO: 31/32”, in the experiment on CNV lesions (setting [4]), the “inhibition of neovascularization (CNV area/volume), qualitative” value is listed as “markedly suppressed neovascularization” and the “Percent inhibition of lesion size” value was approximately 99%. Further, the “inhibition compared to non-specific antibody control” value with CNV lesions (p<0.05) is reported as “significant inhibition”. Besides, the “reduction in retinal neovascularization compared to saline control” value in experiment [1] was approximately 4 fold. The “prevention of VEGF-stimulated increase in cellularity and microvessel density” value in experiment [2] was approximately 80%.

B1: LT1002: murine anti-S1P monoclonal antibody, IgG1 kappa, from hybridoma clone 306D326.26 (antibody, listed as Mus sp., V domains shown)
VH: QAHLQQSDAELVKPGASVKISCKVSGFIFIDHTIHWMKQRPEQGLEWIGCISPRHDITKYNEMFRGKATLTADKSSTTAYIQVNSLTFEDSAVYFCARGGFYGSTIWFDFWGQGTTLTVS
VL: ETTVTQSPASLSMAIGEKVTIRCITTTDIDDDMNWFQQKPGEPPNLLISEGNILRPGVPSRFSSSGYGTDFLFTIENMLSEDVADYYCLQSDNLPFTFGSGTKLEIK
As for B1, in experiment [3] (setting [5]), the “decrease in neovascularization of VEGF-containing plugs vs saline-treated animals” value stood at 5 fold and the “decrease in neovascularization of bFGF-containing plugs vs saline-treated animals” value stood at 8.5 fold. In addition, the “EC infiltration into S1P-containing Matrigel plugs” value in experiment [3] (systemic, every 48 hrs) is recorded as “reduced amount of EC infiltration”. Besides, in the experiment with CNV lesions (setting [4]), the “Percent inhibition of lesion size” value is recorded as “approximately 80%”.
